The numbers were not newly measured in article PMC8124228, “New Hybrids Based on Curcumin and Resveratrol: Synthesis, Cytotoxicity and Antiproliferative Activity against Colorectal Cancer Cells” (Molecules, 2021), which cites them from elsewhere.

The GI50 is the concentration giving 50% growth inhibition. As a reminder, the IC50 is the concentration at which inhibition is half-maximal.

Data set [1] deals with MDA-MB-231 human cancer cells. Further details: method as in doi:10.1007/s00044-016-1514-1. The settings on record: cited from earlier work.
Data set [2] deals with PANC-1 human cancer cells. Further details: method as in doi:10.1007/s00044-016-1514-1. The settings on record: cited from earlier work.
The test system of a further data set is SiHa human cancer cells. Also noted: method as in doi:10.1007/s00044-016-1514-1. The settings on record: cited from earlier work.
Data set [3] has as its system tubulin polymerization. Also noted: method as in PMID 26515041. The settings on record: evaluated in HCT-116 cells; cited from earlier work.
The next data set relates to B16-F10 cell line. The settings on record: cited from earlier work.
In the next data set the test system is A549 cell line. The settings on record: cited from earlier work.
Data set [4] has as its system tubulin polymerization. The settings on record: cited from earlier work.
Another data set deals with HepG2 cell line. The settings on record: cited from earlier work.
For another data set, the system named is SW480 cells. Also noted: method as in doi:10.1007/s00044-018-2202-0. The settings on record: SW480, 48 h; cited from earlier work.

In brackets after ≈: the same amount, converted by molar mass. Where only a bound is given, the exact number is not on record here.

As to `COc1cc(/C=C/c2ccc(NC(=O)CSc3nnc(-c4cccc(C(F)(F)F)c4)o3)cc2)cc(OC)c1` [Resveratrol–oxadiazole hybrid F], the GI50 (in data set [1]; in data set [2]; in the data set on SiHa human cancer cells) was < 100 nM in each case.
Turning to `COc1cc(/C=C/C(=O)/C=C/c2cc(OC)c(OC)c(OC)c2)ccc1CCc1cn(CCN2C(=O)C(=O)c3ccccc32)nn1`, in the data set with tubulin polymerization [3], the “inhibition of tubulin polymerization at (concentration)” value is 1.2 µM.
As to `COc1ccc(/C=C/c2cc(OC)cc(OC)c2/C=C/C(=O)c2ccc(C)c(C)c2)cc1` [Figure 1I], the figures for the IC50 in the data set with B16-F10 cell line, in the data set on A549 cell line and in the data set on HepG2 cell line were 0.1 µg/mL (≈ 0.233 µM), 1.4 µg/mL (≈ 3.27 µM) and 0.2 µg/mL (≈ 0.467 µM), respectively. Also, the “tubulin polymerization inhibitory activity at (concentration)” value in the data set on tubulin polymerization [4] is 2.6 µg/mL.
Turning to `COc1cc(/C=C/c2ccc3ccc(=O)oc3c2)cc(OC)c1O` [Figure 1H], the 50% inhibitory concentration (IC50) in the data set on SW480 cells is 1010 nM.
